From patent publication US8017602B2, “N-(2-(2-(5-hydroxy-3-oxo-3,4-dihydro-2H-benzo[b][1,4]oxazin-8-yl)ethylamino)ethyl)-3-(phenethoxy)propanamide derivatives, processes for their preparation, pharmaceutical compositions containing them and their use in therapy” (AstraZeneca AB, priority 2008, dated 2011) come the findings set out here.

For assay [1], the target named is T1, recombinant human adrenergic beta 1 receptors (Homo sapiens, UniProt P08588).
T1 construct: purchased Euroscreen
Nature of the assay: Adrenergic β1 selectivity binding assay ([125I]-Iodocyanopindolol). As to conditions: inhibition of [125I]-Iodocyanopindolol binding, human β1 membranes; read-out: β1 bind p IC50 (converted). Here is the method:
Membranes containing recombinant human adrenergic beta 1 receptors were obtained from Euroscreen. These were diluted in Assay Buffer (50 mM HEPES, 1 mM EDTA, 120 mM NaCl, 0.1% gelatin, pH 7.4) to provide a final concentration of membranes that gave a clear window between maximum and minimum specific binding.
Assays were performed in U-bottomed 96-well polypropylene plates. 10 μL [^125I]-Iodocyanopindolol (0.036 nM final concentration) and 10 μL of test compound (10× final concentration) were added to each test well. For each assay plate 8 replicates were obtained for [^125I]-Iodocyanopindolol binding in the presence of 10 μl vehicle (10% (v/v) DMSO in Assay Buffer; defining maximum binding) or 10 μl Propranolol (10 μM final concentration; defining non-specific binding (NSB)). Membranes were then added to achieve a final volume of 100 μL. The plates were incubated for 2 h at room temperature and then filtered onto PEI coated GF/B filter plates, pre-soaked for 1 h in Assay Buffer, using a 96-well plate Tomtec cell harvester. Five washes with 250 μL wash buffer (50 mM HEPES, 1 mM EDTA, 120 mM NaCl, pH 7.4) were performed at 4° C. to remove unbound radioactivity. The plates were dried then sealed from underneath using Packard plate sealers and MicroScint-O (50 μl) was added to each well. The plates were sealed (TopSeal A) and filter-bound radioactivity was measured with a scintillation counter (TopCount, Packard BioScience) using a 3-minute counting protocol.
Total specific binding (B0) was determined by subtracting the mean NSB from the mean maximum binding. NSB values were also subtracted from values from all other wells. […] Data was fitted to a four parameter logistic equation to determine the compound potency, which was expressed as pIC50 (negative log molar concentration inducing 50% inhibition of [^125I]-Iodocyanopindolol binding).

The target in assay [2] is T2, recombinant human Dopamine Subtype D2s receptors (Homo sapiens, UniProt P14416).
T2 construct: purchased Perkin Elmer
Nature of the assay: Dopamine D2 selectivity binding assay ([3H]-spiperone). Particulars: inhibition of [3H]-spiperone binding, human D2s membranes; read-out: D2 bind pIC50 (converted). Here is the method:
Membranes containing recombinant human Dopamine Subtype D2s receptors were obtained from Perkin Elmer. These were diluted in Assay Buffer (50 mM HEPES, 1 mM EDTA, 120 mM NaCl, 0.1% gelatin, pH 7.4) to provide a final concentration of membranes that gave a clear window between maximum and minimum specific binding.
Assays were performed in U-bottomed 96-well polypropylene plates. 30 μL [^3H]-spiperone (0.16 nM final concentration) and 30 μl of test compound (10× final concentration) were added to each test well. For each assay plate 8 replicates were obtained for [^3H]-spiperone binding in the presence of 30 μL vehicle (10% (v/v) DMSO in Assay Buffer; defining maximum binding) or 30 μl Haloperidol (10 μM final concentration; defining non-specific binding (NSB)). Membranes were then added to achieve a final volume of 300 μL. The plates were incubated for 2 h at room temperature and then filtered onto PEI coated GF/B filter plates, pre-soaked for 1 h in Assay Buffer, using a 96-well plate Tomtec cell harvester. Five washes with 250 μl wash buffer (50 mM HEPES, 1 mM EDTA, 120 mM NaCl, pH 7.4) were performed at 4° C. to remove unbound radioactivity. The plates were dried then sealed from underneath using Packard plate sealers and MicroScint-O (50 μl) was added to each well. The plates were sealed (TopSeal A) and filter-bound radioactivity was measured with a scintillation counter (TopCount, Packard BioScience) using a 3-minute counting protocol.
Total specific binding (B0) was determined by subtracting the mean NSB from the mean maximum binding. NSB values were also subtracted from values from all other wells. […] Data was fitted to a four parameter logistic equation to determine the compound potency, which was expressed as pIC50 (negative log molar concentration inducing 50% inhibition of [^3H]-spiperone binding).

Structures can show the parent of a compound that is named as a salt.

T2 sequence (P14416 1-414 isoform P14416-2): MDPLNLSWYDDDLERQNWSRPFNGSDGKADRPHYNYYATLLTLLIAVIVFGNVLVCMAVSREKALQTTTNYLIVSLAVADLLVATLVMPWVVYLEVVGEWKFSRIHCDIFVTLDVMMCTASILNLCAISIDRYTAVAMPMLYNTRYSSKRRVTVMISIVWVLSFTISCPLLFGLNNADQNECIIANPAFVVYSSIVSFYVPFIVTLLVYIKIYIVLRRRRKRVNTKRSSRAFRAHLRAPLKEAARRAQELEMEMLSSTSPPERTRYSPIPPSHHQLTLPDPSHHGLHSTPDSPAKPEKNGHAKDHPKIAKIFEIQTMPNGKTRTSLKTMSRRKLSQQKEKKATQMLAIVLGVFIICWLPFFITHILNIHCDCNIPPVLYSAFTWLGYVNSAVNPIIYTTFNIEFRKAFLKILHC
T1 sequence (P08588 whole entry): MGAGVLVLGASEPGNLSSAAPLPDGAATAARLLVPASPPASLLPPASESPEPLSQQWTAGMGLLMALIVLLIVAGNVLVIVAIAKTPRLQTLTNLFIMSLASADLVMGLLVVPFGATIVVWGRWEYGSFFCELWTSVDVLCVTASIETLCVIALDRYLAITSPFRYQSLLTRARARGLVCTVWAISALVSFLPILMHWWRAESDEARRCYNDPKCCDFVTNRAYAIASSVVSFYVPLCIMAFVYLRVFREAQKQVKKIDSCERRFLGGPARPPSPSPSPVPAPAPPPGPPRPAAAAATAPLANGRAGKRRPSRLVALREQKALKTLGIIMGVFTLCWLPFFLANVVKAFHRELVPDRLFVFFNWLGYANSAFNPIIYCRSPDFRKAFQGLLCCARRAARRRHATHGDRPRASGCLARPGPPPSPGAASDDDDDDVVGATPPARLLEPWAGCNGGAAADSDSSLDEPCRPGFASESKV

Regarding `CCn1cc(-c2cccc(CCOCCC(=O)N(CCNCCc3ccc(O)c4c3OCC(=O)N4)C3CCCC3)c2)cn1` [Example 24, N-Cyclopentyl-3-(3-(1-ethyl-1H-pyrazol-4-yl)phenethoxy)-N-(2-(2-(5-hydroxy-3-oxo-3,4-dihydro-2H-benzo[b][1,4]oxazin-8-yl)ethylamino)ethyl)propanamide Trifluoroacetic Acid Salt], the IC50 in assay [1] was 5.01 µM; in assay [2], 3.16 µM.

Turning to `CCn1cc(-c2cccc(CCOCCC(=O)N(CCNCCc3ccc(O)c4c3OCC(=O)N4)[C@H](C)C(C)(C)C)c2)cn1` [Example 25, (R)—N-(3,3-Dimethylbutan-2-yl)-3-(3-(1-ethyl-1H-pyrazol-4-yl)phenethoxy)-N-(2-(2-(5-hydroxy-3-oxo-3,4-dihydro-2H-benzo[b][1,4]oxazin-8-yl)ethylamino)ethyl)propanamide Trifluoroacetic Acid Salt], the IC50 is greater than 10 µM in assay [1] and 3.98 µM in assay [2].

Regarding `C[C@@H](N(CCNCCc1ccc(O)c2c1OCC(=O)N2)C(=O)CCOCCc1cccc(-c2cnn(C)c2)c1)C(C)(C)C` [Example 26, (R)—N-(3,3-Dimethylbutan-2-yl)-N-(2-(2-(5-hydroxy-3-oxo-3,4-dihydro-2H-benzo[b][1,4]oxazin-8-yl)ethylamino)ethyl)-3-(3-(1-methyl-1H-pyrazol-4-yl)phenethoxy)propanamide Trifluoroacetic Acid Salt], the IC50 in assay [1] was greater than 10 µM; in assay [2] it was 2.51 µM.

Take `Cc1nc(-c2cccc(CCOCCC(=O)N(CCNCCc3ccc(O)c4c3OCC(=O)N4)C3CCCCC3)c2)no1` [Example 27, N-Cyclohexyl-N-(2-(2-(5-hydroxy-3-oxo-3,4-dihydro-2H-benzo[b][1,4]oxazin-8-yl)ethylamino)ethyl)-3-(3-(5-methyl-1,2,4-oxadiazol-3-yl)phenethoxy)propanamide Trifluoroacetic Acid Salt]: the IC50 was greater than 10 µM in assay [1] and greater than 5.01 µM in assay [2].

As for `CCn1cc(-c2cccc(CCOCCC(=O)N(CCNCCc3ccc(O)c4c3OCC(=O)N4)C3CCCCC3)c2)cn1` [Example 28, N-Cyclohexyl-3-(3-(1-ethyl-1H-pyrazol-4-yl)phenethoxy)-N-(2-(2-(5-hydroxy-3-oxo-3,4-dihydro-2H-benzo[b][1,4]oxazin-8-yl)ethylamino)ethyl)propanamide], the figures for the IC50 in assay [1] and in assay [2] were greater than 10 µM and greater than 5.01 µM, respectively.

Consider `CCn1ccnc1-c1cccc(CCOCCC(=O)N(CCNCCc2ccc(O)c3c2OCC(=O)N3)C2CCCCC2)c1` [Example 29, N-Cyclohexyl-3-(3-(1-ethyl-1H-imidazol-2-yl)phenethoxy)-N-(2-(2-(5-hydroxy-3-oxo-3,4-dihydro-2H-benzo[b][1,4]oxazin-8-yl)ethylamino)ethyl)propanamide Trifluoroacetic Acid Salt], for which the IC50 in assay [1] is greater than 7.94 µM; in assay [2], 2 µM.

For `CCCC[C@@H](C)N(CCNCCc1ccc(O)c2c1OCC(=O)N2)C(=O)CCOCCc1cccc(-c2cnn(C)c2)c1` [Example 30, (R)—N-(Hexan-2-yl)-N-(2-(2-(5-hydroxy-3-oxo-3,4-dihydro-2H-benzo[b][1,4]oxazin-8-yl)ethylamino)ethyl)-3-(3-(1-methyl-1H-pyrazol-4-yl)phenethoxy)propanamide Trifluoroacetic Acid Salt], the results for the IC50 in assay [1] and in assay [2] were 3.98 µM and 2.51 µM, respectively.

In the case of `Cn1cc(-c2cccc(CCOCCC(=O)N(CCNCCc3ccc(O)c4c3OCC(=O)N4)C3CCCCCC3)c2)cn1` [Example 31, N-Cycloheptyl-N-(2-(2-(5-hydroxy-3-oxo-3,4-dihydro-2H-benzo[b][1,4]oxazin-8-yl)ethylamino)ethyl)-3-(3-(1-methyl-1H-pyrazol-4-yl)phenethoxy)propanamide Trifluoroacetic Acid Salt], the figures for the IC50 in assay [1] and in assay [2] were 5.01 µM and 3.98 µM, respectively.

Regarding `Cc1nc(-c2cccc(CCOCCC(=O)N(CCNCCc3ccc(O)c4c3OCC(=O)N4)C3CCCCC3)c2)[nH]c1C` [Example 32, N-Cyclohexyl-3-(3-(4,5-dimethyl-1H-imidazol-2-yl)phenethoxy)-N-(2-(2-(5-hydroxy-3-oxo-3,4-dihydro-2H-benzo[b][1,4]oxazin-8-yl)ethylamino)ethyl)propanamide], the figures for the IC50 in assay [1] and in assay [2] were 5.01 µM and 0.631 µM, respectively.

As to `Cn1ccnc1-c1cccc(CCOCCC(=O)N(CCNCCc2ccc(O)c3c2OCC(=O)N3)C2CCCCC2)c1` [Example 33, N-Cyclohexyl-N-(2-(2-(5-hydroxy-3-oxo-3,4-dihydro-2H-benzo[b][1,4]oxazin-8-yl)ethylamino)ethyl)-3-(3-(1-methyl-1H-imidazol-2-yl)phenethoxy)propanamide], the IC50 in assay [1] is greater than 10 µM; in assay [2], 3.16 µM.

For `Cc1nc(-c2cccc(CCOCCC(=O)N(CCNCCc3ccc(O)c4c3OCC(=O)N4)C3CCCCC3)c2)cn1C` [Example 35, N-Cyclohexyl-3-(3-(1,2-dimethyl-1H-imidazol-4-yl)phenethoxy)-N-(2-(2-(5-hydroxy-3-oxo-3,4-dihydro-2H-benzo[b][1,4]oxazin-8-yl)ethylamino)ethyl)propanamide Trifluoroacetic Acid Salt], the values for the IC50 in assay [1] and in assay [2] were greater than 10 µM and 3.16 µM, respectively.

On to `COCCn1cc(-c2cccc(CCOCCC(=O)N(CCNCCc3ccc(O)c4c3OCC(=O)N4)C3CCCCC3)c2)cn1` [Example 36, N-Cyclohexyl-N-(2-(2-(5-hydroxy-3-oxo-3,4-dihydro-2H-benzo[b][1,4]oxazin-8-yl)ethylamino)ethyl)-3-(3-(1-(2-methoxyethyl)-1H-pyrazol-4-yl)phenethoxy)propanamide Trifluoroacetic Acid Salt], for which the IC50 is greater than 10 µM in assay [1] and greater than 7.94 µM in assay [2].

On to `Cc1c(-c2cccc(CCOCCC(=O)N(CCNCCc3ccc(O)c4c3OCC(=O)N4)C3CCCCC3)c2)cnn1C` [Example 37, N-Cyclohexyl-3-(3-(1,5-dimethyl-1H-pyrazol-4-yl)phenethoxy)-N-(2-(2-(5-hydroxy-3-oxo-3,4-dihydro-2H-benzo[b][1,4]oxazin-8-yl)ethylamino)ethyl)propanamide Trifluoroacetic Acid Salt], for which the results for the IC50 in assay [1] and in assay [2] were greater than 10 µM and 1.58 µM, respectively.
